Source: PubChem BioAssay AID248 (DTP/NCI, 2004)
“And” between values parts separate entries of the source, which are not always exact repeats. Identical values can stand only once. Toxic doses and inconclusive results are not listed. Cut-off read from the data, not from the text of the source: active = T/C of 150% or more; inactive = T/C below 125%.

Test system: L1210 leukemia ip in BDF1 mice, survival T/C
Experiment: NCI In Vivo Anticancer Drug Screen. Data for tumor model L1210 Leukemia (intraperitoneal) in B6D2F1 (BDF1) mice
Details: endpoint: mean survival time, higher = longer survival
Procedure, shortened: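 Tumor cells were implanted, animals were treated, and survival was followed. The result divides the treated measurement by the vehicle-control measurement.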

[1] = dose: 50.0 mg/kg/injection, schedule: Q01DX001 (ip), vehicle: Klucel (hydroxypropylcellulose) (HPC)
[2] = dose: 100.0 mg/kg/injection, schedule: Q01DX001 (ip), vehicle: Klucel (hydroxypropylcellulose) (HPC)
[3] = dose: 200.0 mg/kg/injection, schedule: Q01DX001 (ip), vehicle: Klucel (hydroxypropylcellulose) (HPC)
[4] = dose: 100.0 mg/kg/injection, schedule: Q04DX002 (ip), vehicle: saline
[5] = dose: 200.0 mg/kg/injection, schedule: Q04DX002 (ip), vehicle: saline
[6] = dose: 400.0 mg/kg/injection, schedule: Q04DX002 (ip), vehicle: saline
[7] = dose: 100.0 mg/kg/injection, schedule: Q04DX003 (ip), vehicle: Klucel (hydroxypropylcellulose) (HPC)
[8] = dose: 200.0 mg/kg/injection, schedule: Q04DX003 (ip), vehicle: Klucel (hydroxypropylcellulose) (HPC)
[9] = dose: 400.0 mg/kg/injection, schedule: Q04DX003 (ip), vehicle: Klucel (hydroxypropylcellulose) (HPC)
[10] = dose: 100.0 mg/kg/injection, schedule: Q01DX001 (ip), vehicle: saline
[11] = dose: 200.0 mg/kg/injection, schedule: Q01DX001 (ip), vehicle: saline
[12] = dose: 400.0 mg/kg/injection, schedule: Q01DX001 (ip), vehicle: saline
[13] = dose: 100.0 mg/kg/injection, schedule: Q01DX001 (ip), vehicle: other
[14] = dose: 200.0 mg/kg/injection, schedule: Q01DX001 (ip), vehicle: other
[15] = dose: 400.0 mg/kg/injection, schedule: Q01DX001 (ip), vehicle: other
[16] = dose: 100.0 mg/kg/injection, schedule: Q01DX009 (ip), vehicle: saline sonified
[17] = dose: 200.0 mg/kg/injection, schedule: Q01DX009 (ip), vehicle: saline sonified
[18] = dose: 50.0 mg/kg/injection, schedule: Q01DX009 (ip), vehicle: saline
[19] = dose: 100.0 mg/kg/injection, schedule: Q01DX009 (ip), vehicle: saline
[20] = dose: 100.0 mg/kg/injection, schedule: Q01DX009 (ip), vehicle: saline with Tween-80
[21] = dose: 200.0 mg/kg/injection, schedule: Q01DX009 (ip), vehicle: saline with Tween-80

Measured: T/C

O=C(Nc1ccc(NC2=NCCN2)cc1)c1cc(C(=O)Nc2ccc(NC3=NCCN3)cc2)cc([N+](=O)[O-])c1
inactive: dose: 1.87 mg/kg/injection, schedule: Q01DX Z (ip), vehicle: saline 113 % of control | dose: 3.75 mg/kg/injection, schedule: Q01DX Z (ip), vehicle: saline 109 % of control | dose: 7.5 mg/kg/injection, schedule: Q01DX Z (ip), vehicle: saline 115 % of control | dose: 15.0 mg/kg/injection, schedule: Q01DX Z (ip), vehicle: methylcellulose (MC) 94 % of control | dose: 15.0 mg/kg/injection, schedule: Q01DX Z (ip), vehicle: saline 105 % of control

Cc1cc(C)c(F)c(-c2c(N)c(C)cc(C)c2F)c1N
inactive: [1] 106 % of control | [2] 101 % of control | [3] 96 % of control

O=S(=O)(O)CCNC(=S)C(=S)NCCS(=O)(=O)O
inactive: [4] 101 % of control | [5] 101 % of control | [6] 101 % of control

CC(C)P(=S)(OCc1ccccc1)C(C)C
inactive: dose: 100.0 mg/kg/injection, schedule: Q01DX001 (ip), vehicle: saline with Tween-80 99 % of control | dose: 200.0 mg/kg/injection, schedule: Q01DX001 (ip), vehicle: saline with Tween-80 98 % of control | dose: 400.0 mg/kg/injection, schedule: Q01DX001 (ip), vehicle: saline with Tween-80 105 % of control

O=C(CI)NCc1ccccc1
inactive: dose: 75.0 mg/kg/injection, schedule: Q01DX001 (ip), vehicle: saline 96 % of control

Cc1ccc(NC(=O)c2ccc(C)c(N)c2)c(C)c1
inactive: dose: 100.0 mg/kg/injection, schedule: Q01DX009 (ip), vehicle: gum acacia 100 % of control | dose: 100.0 mg/kg/injection, schedule: Q04DX003 (ip), vehicle: gum acacia 98 % of control | dose: 200.0 mg/kg/injection, schedule: Q01DX009 (ip), vehicle: gum acacia 87 % of control | dose: 200.0 mg/kg/injection, schedule: Q04DX003 (ip), vehicle: gum acacia 102 % of control | dose: 400.0 mg/kg/injection, schedule: Q01DX009 (ip), vehicle: gum acacia 87 % of control | dose: 400.0 mg/kg/injection, schedule: Q04DX003 (ip), vehicle: gum acacia 98 % of control

NCCc1ccc(O)c(CO)c1
inactive: [4] 105 % of control | [5] 86 % of control | [6] 105 % of control

Nc1ccc2nc(NCCCO)c3ccccc3c2c1
inactive: [7] 107 % of control | [8] 113 % of control | [9] 102 % of control

COc1ccccc1N=Nc1c(O)[nH]c2ccccc12
inactive: [10] 96 % of control | [11] 96 % of control | [12] 102 % of control

CCCCOC(=O)c1ccc(NC(=O)Nc2ccccc2)cc1
inactive: dose: 25.0 mg/kg/injection, schedule: Q04DX003 (ip), vehicle: saline with Tween-80 101 % of control | dose: 50.0 mg/kg/injection, schedule: Q04DX003 (ip), vehicle: saline with Tween-80 93 % of control | dose: 100.0 mg/kg/injection, schedule: Q04DX003 (ip), vehicle: saline with Tween-80 93 % of control and 97 % of control

CC/C(C)=N/Nc1ccc([N+](=O)[O-])cc1[N+](=O)[O-]
inactive: [13] 94 % of control | [14] 94 % of control | [15] 97 % of control

CCOC(=O)CCC(C)(C#N)C(C#N)C(=O)OCC (configuration not stated)
inactive: [16] 97 % of control | dose: 100.0 mg/kg/injection, schedule: Q04DX003 (ip), vehicle: saline sonified 108 % of control | [17] 110 % of control | dose: 200.0 mg/kg/injection, schedule: Q04DX003 (ip), vehicle: saline sonified 97 % of control | dose: 400.0 mg/kg/injection, schedule: Q01DX009 (ip), vehicle: saline sonified 100 % of control | dose: 400.0 mg/kg/injection, schedule: Q04DX003 (ip), vehicle: saline sonified 98 % of control

O=C1OC(=O)c2c3c(c4c(c21)CCC4)CCC3
inactive: [18] 107 % of control | [10] 100 % of control | [19] 93 % of control | dose: 100.0 mg/kg/injection, schedule: Q04DX003 (ip), vehicle: saline 101 % of control | [11] 91 % of control | dose: 200.0 mg/kg/injection, schedule: Q01DX009 (ip), vehicle: saline 94 % of control | dose: 200.0 mg/kg/injection, schedule: Q04DX003 (ip), vehicle: saline 96 % of control | [12] 97 % of control

CNC(=O)O/N=C(/SC)C(C)C
inactive: dose: 5.0 mg/kg/injection, schedule: Q01DX001 (ip), vehicle: saline 100 % of control | dose: 10.0 mg/kg/injection, schedule: Q01DX001 (ip), vehicle: saline 100 % of control

CCOC(=O)C(COC)C(C(=O)CC)C(=O)OCC (configuration not stated)
inactive: [13] 102 % of control | [14] 89 % of control | [15] 96 % of control

OC(c1ccccc1)C1CCCC1 (configuration not stated)
inactive: dose: 50.0 mg/kg/injection, schedule: Q01DX009 (ip), vehicle: saline with Tween-80 90 % of control | [20] 93 % of control | [21] 90 % of control

O=C(Nc1nccs1)Nc1ccccc1C(F)(F)F
inactive: [20] 100 % of control | [21] 106 % of control | dose: 400.0 mg/kg/injection, schedule: Q01DX009 (ip), vehicle: saline with Tween-80 92 % of control

C1CCC2(CC1)CN2
inactive: dose: 25.0 mg/kg/injection, schedule: Q01DX009 (ip), vehicle: saline 103 % of control | [18] 100 % of control | [10] 97 % of control | [19] 104 % of control

CN(C)NCCC#N
inactive: dose: 66.0 mg/kg/injection, schedule: Q01DX009 (ip), vehicle: saline 118 % of control | dose: 75.0 mg/kg/injection, schedule: Q01DX009 (ip), vehicle: saline 116 % of control | [16] 98 % of control | [19] 116 % of control | [17] 111 % of control

COP(=O)(OC)/C(=N\NS(=O)(=O)c1ccc(C)cc1)c1ccccc1
inactive: [7] 94 % of control | [8] 101 % of control | [9] 94 % of control

CC(C)=CCCC1(C)C=Cc2c(c(C)cc3c2[nH]c2ccccc23)O1 (configuration not stated)
inactive: dose: 25.0 mg/kg/injection, schedule: Q04DX002 (ip), vehicle: gum acacia 96 % of control | dose: 50.0 mg/kg/injection, schedule: Q04DX002 (ip), vehicle: gum acacia 89 % of control | dose: 100.0 mg/kg/injection, schedule: Q04DX002 (ip), vehicle: gum acacia 99 % of control

C[N+](C)(CC(=O)Nc1ccc(Oc2ccc(Cl)cc2)cc1)Cc1ccccc1
inactive: dose: 12.5 mg/kg/injection, schedule: Q01DX001 (ip), vehicle: Klucel (hydroxypropylcellulose) (HPC) 104 % of control | dose: 12.5 mg/kg/injection, schedule: Q01DX009 (ip), vehicle: Klucel (hydroxypropylcellulose) (HPC) 91 % of control | dose: 25.0 mg/kg/injection, schedule: Q01DX001 (ip), vehicle: Klucel (hydroxypropylcellulose) (HPC) 101 % of control | dose: 25.0 mg/kg/injection, schedule: Q01DX009 (ip), vehicle: Klucel (hydroxypropylcellulose) (HPC) 88 % of control | [1] 93 % of control

Cc1ccc(Cl)cc1N=Cc1cccc([N+](=O)[O-])c1
inactive: dose: 75.0 mg/kg/injection, schedule: Q04DX003 (ip), vehicle: Klucel (hydroxypropylcellulose) (HPC) 96 % of control | [2] 100 % of control | dose: 150.0 mg/kg/injection, schedule: Q04DX003 (ip), vehicle: Klucel (hydroxypropylcellulose) (HPC) 93 % of control | [3] 97 % of control | dose: 300.0 mg/kg/injection, schedule: Q04DX003 (ip), vehicle: Klucel (hydroxypropylcellulose) (HPC) 93 % of control | dose: 400.0 mg/kg/injection, schedule: Q01DX001 (ip), vehicle: Klucel (hydroxypropylcellulose) (HPC) 101 % of control
